The results in this text go back to patent publication US20210300908A1, “S1P1 AGONIST AND APPLICATION THEREOF” (SHIJIAZHUANG SAGACITY SRUG SEVELOPMENT CO., LTD., priority 2016, published 2021).

Each structure is given as a SMILES string. Where only a bound is given, the exact number is not on record here.

The nature of data set [1]: Evaluation of compound pharmacokinetics in SD rats (intravenous injection and oral administration). The format is in vivo. The conditions noted are these: male, Sprague Dawley, rat, plasma, 2 mg/kg, 2 mpk; for clearance: read-out: Clearance rate; for AUC: read-out: Drug concentration integral: AUC; for half-life: read-out: Half-life period: T1/2 (converted); for bioavailability: oral, read-out: Fraction of bioavailability: F. As for the experimental part:
Aim of the experiments: To test pharmacokinetics of the compounds in SD rats. Experimental Materials: Sprague Dawley rats (male, 200-300 g, 7-9 weeks old, Shanghai Slack) Experimental Procedure: The rodent pharmacokinetic characteristics of the compounds after intravenous injection and oral administration were tested by the standard protocol. In the experiments, the transparent solution was prepared with the compounds to be test. The rats were administered single intravenous injection and oral administration. The solvent for intravenous injection and oral administration was aqueous hydroxypropyl β-cyclodextrin solution or normal saline solution with a certain concentration. Collect the blood samples within 24 hours and centrifuge at 3000 G for 15 minutes. Separate the supernatant to obtain the plasma samples. A volume of acetonitrile solution containing internal standard was added 4 times as the sample to precipitate the protein. The supernatant was obtained after centrifuge. An equal volume of water was added and then centrifuge again to collect the supernatant. The LC-MS/MS method was used to quantitatively analyze the blood drug concentration and the pharmacokinetic parameters such as peak concentration, peak time, clearance rate, half-life period, area under the curve of the drug concentration, and fraction of bioavailability, etc. were calculated.

The target of the next data set is S1P1 receptor (Homo sapiens, UniProt P21453). The data set is described as follows: S1P1 receptor agonistic activity (PathHunter cell strain, chemiluminescent signal detection). The data set is classed as cell-based. The settings on record: PathHunter cells, agonist mode, 37° C. 90-180 minutes. The protocol: Test Method: […] Cell Processing i) Thaw the PathHunter cell strain according to the standard procedures. ii) Seed the cell in the 20 μL 384-microwell plate and incubate at 37° C. for an appropriate period. 2. Agonist i) For agonist testing, cells were incubated with the sample to be test to initiate a reaction; ii) The stock solution to be tested has been diluted 5 folds to be a buffer solution; iii) Inject the 5-fold diluted solution (5 μL) into the cells and incubate at 37° C. for 90-180 minutes. […] 3. Signal Detection i) Add 12.5 μL or 15 μL PathHunter detection reagent (50 vol. %) in one portion. Then, incubate at room temperature for 1 hour and generate the detection signal; ii) Use PerkinElmer Evision™ instrument to read the microwell plate to proceed with chemiluminescent signal detection. 4. Data Analysis i) Use CBIS data analysis system for the compound activity analysis. ii) Calculation formula: […]
Sequence of S1P1 receptor (P21453 whole entry): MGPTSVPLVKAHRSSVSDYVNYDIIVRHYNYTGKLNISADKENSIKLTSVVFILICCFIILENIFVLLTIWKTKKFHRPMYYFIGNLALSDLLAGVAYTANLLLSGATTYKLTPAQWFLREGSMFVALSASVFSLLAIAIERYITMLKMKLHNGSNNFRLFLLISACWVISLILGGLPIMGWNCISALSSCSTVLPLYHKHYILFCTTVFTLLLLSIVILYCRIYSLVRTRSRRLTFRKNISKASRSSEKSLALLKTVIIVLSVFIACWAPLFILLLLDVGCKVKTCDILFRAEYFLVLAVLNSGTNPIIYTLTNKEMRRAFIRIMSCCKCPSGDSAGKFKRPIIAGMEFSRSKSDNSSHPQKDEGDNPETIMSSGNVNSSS

A word on the bioavailability: it is dose-corrected exposure relative to a reference, in per cent. Broadly, the EC50 is the concentration that produces a half-maximal response. Higher therefore signals a less potent agent. As for `CC(C)Oc1ccc(-c2nc(-c3cccc4c3C[C@@H]3OC(=O)N(CCO)[C@H]43)no2)cc1C#N` (relative stereo) [Example 50], in data set [1], the clearance was 6.59 mL/min/kg, the AUC was 8.52 µM·h, the half-life is 4.82 h and the bioavailability stood at 72.4%. On S1P1 receptor, the EC50 is under 10 nM. At S1P1 receptor, `CC(C)Oc1ccc(-c2nc(-c3cccc4c3CC3CC(=O)N(CCO)C43)no2)cc1C#N` (stereo not drawn) [Example 1 Mixture] came in with an EC50 of under 10 nM.

With `CC(C)Oc1ccc(-c2ncc(-c3cccc4c3CC3CC(=O)N(CCO)C43)s2)cc1C#N` (stereo not drawn) [Example 2], the EC50 on S1P1 receptor is under 10 nM. The same measure, in the same setting: as for `CC(C)Oc1ccc(-c2nnc(-c3cccc4c3CC3CC(=O)N(CCO)C43)s2)cc1C#N` (stereo not drawn) [Example 3], the figure is under 10 nM; as for `CC(C)Oc1ccc(-c2ncc(-c3cccc4c3CC3CC(=O)N(CCO)C43)o2)cc1C#N` (stereo not drawn) [Example 4], under 10 nM. Still for that read-out and setting: the same measure for `CC(C)Oc1ccc(-c2ccc(-c3cccc4c3CC3CC(=O)N(CCO)C43)s2)cc1C#N` (stereo not drawn) [Example 5]: under 10 nM; for `CC(C)Oc1ccc(-c2nc(-c3cccc4c3CC3CC(=O)N(CCO)C43)ns2)cc1C#N` (stereo not drawn) [Example 6]: under 10 nM; for `CC(C)Oc1ccc(-c2nsc(-c3cccc4c3CC3CC(=O)N(CCO)C43)n2)cc1C#N` (stereo not drawn) [Example 7]: under 10 nM.

At S1P1 receptor, `CC(C)Oc1ccc(-c2nc(-c3cccc4c3CC3CC(=O)N(CCC(=O)O)C43)no2)cc1C#N` (stereo not drawn) [Example 9] came in with an EC50 of under 10 nM. `CC(C)Oc1ccc(-c2nc(-c3cccc4c3CC3CC(=O)N(CCCC(=O)O)C43)no2)cc1C#N` (stereo not drawn) [Example 10] displayed an EC50 at S1P1 receptor of under 10 nM. As for `CC(C)Oc1ccc(-c2nc(-c3cccc4c3CC3CC(=O)N(CCCCC(=O)O)C43)no2)cc1C#N` (stereo not drawn) [Example 11], the EC50 at S1P1 receptor is under 10 nM. Regarding `COCCN1C(=O)CC2Cc3c(-c4noc(-c5ccc(OC(C)C)c(C#N)c5)n4)cccc3C21` (stereo not drawn) [Example 12], the EC50 on S1P1 receptor is under 10 nM. Still for that read-out and setting: as for `CC(C)Oc1ccc(-c2nc(-c3cccc4c3CC3CC(=O)N(CCS(C)(=O)=O)C43)no2)cc1C#N` (stereo not drawn) [Example 13], the figure is under 10 nM.

As for `CC(C)Oc1ccc(-c2nc(-c3cccc4c3CC3CC(=O)N(CC(O)CO)C43)no2)cc1C#N` (stereo not drawn) [Example 14], in data set [1], the clearance amounted to 7.22 mL/min/kg, the AUC came out at 5.76 µM·h, the half-life was 3.27 h and the bioavailability turned out to be 59%. This molecule showed an EC50 on S1P1 receptor of under 10 nM.

On S1P1 receptor, `CC(C)Oc1ccc(-c2nc(-c3cccc4c3CC3CC(=O)N(CC(=O)N(C)C)C43)no2)cc1C#N` (stereo not drawn) [Example 15] yielded an EC50 of 10 to 100 nM. As to `O=C1CC2Cc3c(-c4noc(-c5ccc(OC(F)F)cc5)n4)cccc3C2N1CCO` (stereo not drawn) [Example 16], the EC50 at S1P1 receptor is over 100 nM.

For `N#Cc1cccc(-c2nc(-c3cccc4c3CC3CC(=O)N(CCO)C43)no2)c1` (stereo not drawn) [Example 17], the EC50 at S1P1 receptor is over 100 nM.

As to `COc1ccc(-c2nc(-c3cccc4c3CC3CC(=O)N(CCO)C43)no2)cc1` (stereo not drawn) [Example 18], the EC50 at S1P1 receptor is over 100 nM.

On S1P1 receptor, `O=C1CC2Cc3c(-c4noc(-c5ccc(OC(F)(F)F)cc5)n4)cccc3C2N1CCO` (stereo not drawn) [Example 19] displayed an EC50 of over 100 nM. In turn, `CC(C)Oc1cccc(-c2nc(-c3cccc4c3CC3CC(=O)N(CCO)C43)no2)c1` (stereo not drawn) [Example 20] showed a half-maximal effective concentration (EC50) on S1P1 receptor of over 100 nM. On the same count and under the same terms, the same measure for `O=C1CC2Cc3c(-c4noc(-c5ccc(OC6CC6)cc5)n4)cccc3C2N1CCO` (stereo not drawn) [Example 21]: over 100 nM; for `CC(C)Oc1ccccc1-c1nc(-c2cccc3c2CC2CC(=O)N(CCO)C32)no1` (stereo not drawn) [Example 22]: over 100 nM; for `O=C1CC2Cc3c(-c4noc(-c5ccc(OCC6CC6)cc5)n4)cccc3C2N1CCO` (stereo not drawn) [Example 23]: over 100 nM. At S1P1 receptor, `COCOc1ccc(-c2nc(-c3cccc4c3CC3CC(=O)N(CCO)C43)no2)cc1` (stereo not drawn) [Example 24] had an EC50 of over 100 nM. On to `CC(C)Oc1ccc(-c2nc(-c3cccc4c3CC3CC(=O)N(CCO)C43)no2)cc1Br` (stereo not drawn) [Example 25], for which the EC50 on S1P1 receptor is under 10 nM. In the case of `CC(C)Oc1ccc(-c2nc(-c3cccc4c3CC3CC(=O)N(CCO)C43)no2)cc1Cl` (stereo not drawn) [Example 26], in data set [1], the clearance came out at 7.5 mL/min/kg, the AUC worked out at 4.35 µM·h, the half-life was 26.7 h and the bioavailability is 88.2%. At S1P1 receptor, this molecule came in with an EC50 of under 10 nM.

Turning to `CC(C)Oc1ccc(-c2nc(-c3cccc4c3CC3CC(=O)N(CCO)C43)no2)cc1C(F)F` (stereo not drawn) [Example 27], in data set [1], the clearance was determined as 8.86 mL/min/kg, the AUC turned out to be 4.78 µM·h, the half-life was 21.2 h and the bioavailability turned out to be 92.6%. For the same molecule, the EC50 at S1P1 receptor was under 10 nM.

For `CN(C)CCOc1ccc(-c2nc(-c3cccc4c3CC3CC(=O)N(CCO)C43)no2)cc1` (stereo not drawn) [Example 28], the EC50 at S1P1 receptor is over 100 nM. On the same count and under the same terms, the same measure for `Cc1nc(C)c(-c2nc(-c3cccc4c3CC3CC(=O)N(CCO)C43)no2)o1` (stereo not drawn) [Example 29]: over 100 nM.

For `CCCc1nnsc1-c1nc(-c2cccc3c2CC2CC(=O)N(CCO)C32)no1` (stereo not drawn) [Example 30], the EC50 at S1P1 receptor was over 100 nM. On the same count and under the same terms, the same measure for `O=C1CC2Cc3c(-c4noc(-c5nc6ccccn6c5F)n4)cccc3C2N1CCO` (stereo not drawn) [Example 31]: over 100 nM; for `O=C1CC2Cc3c(-c4noc(-c5csc(-c6ccccc6)n5)n4)cccc3C2N1CCO` (stereo not drawn) [Example 32]: over 100 nM. Take `CN1CCc2nc(-c3nc(-c4cccc5c4CC4CC(=O)N(CCO)C54)no3)sc2C1` (stereo not drawn) [Example 33]: the EC50 at S1P1 receptor was over 100 nM. The same measure, in the same setting: as for `CC(C)c1ncc(-c2nc(-c3cccc4c3CC3CC(=O)N(CCO)C43)no2)s1` (stereo not drawn) [Example 34], the figure is over 100 nM; as for `O=C1CC2Cc3c(-c4noc(-c5cnc6ncccn56)n4)cccc3C2N1CCO` (stereo not drawn) [Example 35 Compound 35-2], over 100 nM.

Regarding `O=C1CC2Cc3c(-c4noc(-c5cn6cccnc6n5)n4)cccc3C2N1CCO` (stereo not drawn) [Example 35 Compound 35-3], the EC50 at S1P1 receptor was over 100 nM. Same read-out and setting: as for `O=C1CC2Cc3c(-c4noc(-c5cn6c(n5)CCCC6)n4)cccc3C2N1CCO` (stereo not drawn) [Example 36], the figure is over 100 nM; as for `O=C1CC2Cc3c(-c4noc(-c5cc(-c6nccs6)on5)n4)cccc3C2N1CCO` (stereo not drawn) [Example 37], over 100 nM.

On to `O=C1CC2Cc3c(-c4noc(-c5cn(Cc6ccccc6)nn5)n4)cccc3C2N1CCO` (stereo not drawn) [Example 38], for which the EC50 on S1P1 receptor is over 100 nM. Same read-out and setting: as for `CC(C)Oc1ccc(-c2nc(-c3cccc4c3CC3CC(=O)N(CCO)C43)no2)cc1` (stereo not drawn) [Example 39], the figure is 10 to 100 nM; as for `CC(C)Oc1ccc(-c2nc(-c3cccc4c3CC3CC(=O)N(CCO)C43)no2)cc1OCCN(C)C` (stereo not drawn) [Example 41], over 100 nM; as for `CC(C)Oc1ccc(-c2nc(-c3cccc4c3CC3CC(=O)N(CCO)C43)no2)c(C#N)c1` (stereo not drawn) [Example 42], over 100 nM. Molecule `CC(C)Oc1ccc(-c2nc(-c3cccc4c3CC3CC(=O)N(CCO)C43)no2)cc1S(C)(=O)=O` (stereo not drawn) [Example 43] came in with an EC50 at S1P1 receptor of 10 to 100 nM.

As for `COc1cc(-c2nc(-c3cccc4c3CC3CC(=O)N(CCO)C43)no2)cc(C2CCCC2)n1` (stereo not drawn) [Example 44], at S1P1 receptor, the EC50 is 10 to 100 nM.

At S1P1 receptor, `CC(C)Oc1ccc(-c2nc(-c3cccc4c3CC3CCC(=O)N(CCO)C43)no2)cc1C#N` (stereo not drawn) [Example 45] gave an EC50 of under 10 nM. `CC(C)Oc1ccc(-c2nc(-c3cccc4c3CCC3CC(=O)N(CCO)C43)no2)cc1C#N` (stereo not drawn) [Example 46]: the EC50 on S1P1 receptor was under 10 nM. `CC(C)Oc1ccc(-c2nc(-c3cccc4c3CC3CC(=O)N(CCOS(=O)(=O)O)[C@H]43)no2)cc1C#N` (stereo partly drawn) [Example 47]: the EC50 on S1P1 receptor is under 10 nM.

In turn, `CC(C)Oc1ccc(-c2nc(-c3cccc4c3CC3CCN(CCO)C43)no2)cc1C#N` (stereo not drawn) [Example 49] gave an EC50 at S1P1 receptor of 10 to 100 nM. Still for that read-out and setting: the same measure for `CC(C)Oc1ccc(-c2nnc(-c3cccc4c3C[C@@H]3CC(=O)N(CCO)[C@H]43)o2)cc1C#N` [Example 51]: under 10 nM; for `CC(C)Oc1ccc(-c2nc(-c3cccc4c3CC3CCN(CC(=O)O)C43)no2)cc1C#N` (stereo not drawn) [Example 52]: under 10 nM; for `CC(C)Oc1ccc(-c2nc(-c3cccc4c3C[C@@H]3CCN(C5CC(C(=O)O)C5)C43)no2)cc1C#N` (stereo partly drawn) [Example 53]: under 10 nM. The same measure, in the same setting: the same measure for `CC(C)Oc1ccc(-c2nc(-c3cccc4c3CC3CC(=O)N(CCO)[C@H]43)n[nH]2)cc1C#N` (stereo partly drawn) [Example 54]: 10 to 100 nM; for `CC(C)Oc1ccc(-c2nc(-c3cccc4c3C[C@@H]3CC(=O)N([C@@H](CO)C(C)C)C43)no2)cc1C#N` (stereo partly drawn) [Example 55]: 10 to 100 nM.
